Results on four substances are retold here after patent publication US4085096A, “Hexapeptides and methods for their production” (Parke, Davis & Company, priority 1976, dated 1978).

“And” between values parts separate entries of the source, which are not always exact repeats. Equal entries are not always repeated.

The assay has as its system LRF (luteinizing hormone releasing factor) induced luteinizing hormone (LH) release. Kind of assay: In vitro LRF antagonist test in rat anterior pituitary cell cultures. As to conditions: for % LH Release Inhibition: test compound Molar Conc. 1 × 10^-6. It is filed as cell-based. The source says: Hexapeptides of this invention were screened for LRF antagonist activity in vitro using rat anterior pituitary cell cultures as described by Vale et. al. [Endocrinology, 91, 562 (1972)]. The inhibition of LRF (luteinizing hormone releasing factor) induced luteinizing hormone (LH) release into the culture medium is the endpoint in this in vitro bioassay.

Setting [1] is: test compound Molar Conc. 1 × 10^-6, LH released into culture medium.

As to “LRF: luteinizing hormone releasing factor; stimulates secretion of luteinizing hormone from the anterior pituitary; used as stimulus control (QHWSYGLRPG; Gonadoliberin-1; UniProt P01148 24-33, looked up) [reference compound]”, the “LH Value” was 38.98 ng/mL (LRF Control, Molar Conc. 2.5 × 10^-10); 66.03 ng/mL and 35.60 ng/mL (LRF Control, Molar Conc. 3.5 × 10^-10).
For “N^α -Benzyloxycarbonyl-L-glutaminyl-L-tryptophyl-N^im -benzyl-L-histidyl-O-benzyl-L-tyrosyl-O-benzyl-L-seryl-D-alanine methyl ester”, the “% LH Release Inhibition” value stood at 86%. Moreover, the “LH Value” under setting [1] came out at 13.53 ng/mL.
As for “N^α -t-Butoxycarbonyl-L-tryptophyl-N^im -benzyl-L-histidyl-O-benzyl-L-tyrosyl-O-benzyl-L-seryl-L-prolyl-D-alanine N-ethylamide”, the “% LH Release Inhibition” value turned out to be 100%. Also, under setting [1], the “LH Value” came to 5.57 ng/mL.
On the same counts, the results for “N^α -t-Butoxycarbonyl-N^im -benzyl-L-histidyl-L-tryptophyl-N^im -benzyl-L-histidyl-O-benzyl-L-tyrosyl-O-benzyl-L-seryl-D-alanine N-ethylamide” are 73% and 24.80 ng/mL.
